{
  "source": "patent US20250042968A1",
  "about": "“EPHRIN LIGAND MIMETIC PEPTIDES FOR THE TREATMENT OF NEURODEGENERATIVE DISEASES” (University of Miami, priority 2022, published 2025)",
  "key": {"[1]": {"test_system": "RGCs and visual function after optic neuropathy onset", "experiment": "Ultrasonic shockwave optic nerve injury model (SI-TON): RGC survival, PERG, flash ERG", "type": "in vivo, mouse", "procedure": "In this example, the effect of xEFN peptide administration on the visual function of mice in an animal model that more closely resembled the human manifestation and progression of visual dysfunction following the onset of optic neuropathy was assessed. […] Visual function was measured at 2 and 4 weeks post optic nerve injury in all groups using pattern electroretinogram (PERG) to measure RGC function, as well as flash electroretinogram (ERG) to assess rod and cone functionality."}, "[2]": {"test_system": "RGCs and optic nerve axons after optic nerve crush (ONC)", "experiment": "Mouse model of optic nerve crush (ONC), intravitreal xEFN peptides", "type": "in vivo", "details": "for RGC pool rescue / survival over PBS-treated controls: intravitreal, 4 weeks after injury; for regenerating axons compared to controls: starting at 100 μm past the injury site and throughout the analysis window", "procedure": "Antagonizing forward Eph signaling has been proven beneficial in a number of CNS disorders (Neurogastroenterol Motil. 2020:e13782; Acta Neuropathol Commun. 2018; 6(1):111; Proc Natl Acad Sci USA. 2014 Jul. 8; 111(27):9959-64; Eur J Neurosci. 2014 Oct; 40(7):3021-31; Neuroscience. 2013 Jun. 25; 241:89-99). The use of xEFN peptides as multi-Eph receptor antagonists was evaluated in treating retinal degeneration induced by optic nerve crush (ONC). The ONC model is the most commonly used model for the study of glaucoma and other optic neuropathies. All animal experiments were performed in compliance with the National Institutes of Health (Bethesda, MD, USA) Guide for the Care and Use of Laboratory Animals and the ARVO Statement for the Use of Animals in Ophthalmic and Vision Research. Animal protocols were reviewed and approved by the Institutional Animal Care and Use Committee of the University of Miami. […] With the use of jeweler's forceps (Dumont No. 5; tip dimension, 0.1×0.06 mm), the optic nerve is then crushed for 10 seconds at a location 2 mm distal from its insertion point into the globe. […] […]. At 4 weeks post-injury, animals were euthanized and enucleated for extraction of the retinas and optic nerves. Retinas were stained by immunohistochemistry for TUBB3 and RGCs were manually counted in each animal. Optic nerves were placed into tissue clearing solution for 1 week and then imaged for the CTB-647 label as whole mounts using a Leica SP8 Laser Scanning Confocal microscope (Leica Microsystems). Axonal projections were quantified at 100 μm intervals along the optic nerve track for up to 2 mm past the crush site using the fluorometric intensity measurement and analysis tool in the Leica LAS X microscopy suite software package, using the contralateral nerve (not CTB-injected) as a background reading for 647 nm fluorometric intensity in each sample."}},
  "data": [
    {"sequence": "FTIKFQEFSPNLWGL [xEFN_RBD3]", "values": [
      {"measurement": "PERG amplitude over baseline recordings", "setting": "[1]; 2 weeks post optic nerve injury", "result": "decline"},
      {"measurement": "visual response versus vehicle (PBS) treated animals", "setting": "[1]; 4 week assessment", "result": "significantly better"},
      {"measurement": "RGC survival compared to vehicle treated controls", "setting": "[1]; 4 weeks post injury", "result": "significant survival effect"},
      {"measurement": "visual function (PERG) at the 4 week assessment", "setting": "[1]; 4 weeks post optic nerve injury", "result": "improved"},
      {"measurement": "RGC survival", "setting": "[2]; 6 μg intravitreal twice (immediately after ONC and 7 days after), 4 weeks, compared to uninjured contralateral retina", "result": "44.17+/−2.39%"},
      {"measurement": "axonal projections detected distal to the crush site", "setting": "[2]; CTB labeled axons, 4 weeks post-ONC, analysis region 2000 μm", "result": "≥ 2000", "unit": "μm"},
      {"measurement": "RGC pool rescue / survival over PBS-treated controls", "setting": "[2]", "result": "significant rescue"},
      {"measurement": "RGC pool rescue / survival over PBS-treated controls", "setting": "[2]; listed as xEFN_EBD3", "result": "significant RGC survival"},
      {"measurement": "regenerating axons compared to controls", "setting": "[2]", "result": "significant increase"},
      {"measurement": "regenerating axons compared to controls", "setting": "[2]; listed as xEFN_EBD3", "result": "axonal regeneration"}
    ]}
  ]
}
